Measurements from PubChem BioAssay AID328 (DTP/NCI, 2004).
Values joined by “and” are separate entries in the source; they are usually repeats but may differ in a detail not shown here. Identical values can stand only once. Toxic doses and inconclusive results are not listed.

System: BDF1 mice, P388 leukemia ip, median survival T/C
Assay: NCI In Vivo Anticancer Drug Screen. Data for tumor model P388 Leukemia (intraperitoneal) in B6D2F1 (BDF1) mice
Settings: endpoint: median survival time, higher = longer survival
How it was run: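 T/C = treated-group survival ÷ vehicle-control survival; tumour transplanted into mice before dosing.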

[1] = dose: 12.5 mg/kg/injection, schedule: Q01DX009 (ip), vehicle: saline
[2] = dose: 6.25 mg/kg/injection, schedule: Q01DX009 (ip), vehicle: saline with Tween-80
[3] = dose: 50.0 mg/kg/injection, schedule: Q04DX003 (ip), vehicle: saline with Tween-80
[4] = dose: 100.0 mg/kg/injection, schedule: Q04DX003 (ip), vehicle: saline with Tween-80
[5] = dose: 25.0 mg/kg/injection, schedule: Q04DX003 (ip), vehicle: saline
[6] = dose: 50.0 mg/kg/injection, schedule: Q01DX009 (ip), vehicle: saline
[7] = dose: 100.0 mg/kg/injection, schedule: Q04DX003 (ip), vehicle: saline
[8] = dose: 200.0 mg/kg/injection, schedule: Q04DX003 (ip), vehicle: saline
[9] = dose: 200.0 mg/kg/injection, schedule: Q04DX003 (ip), vehicle: saline with Tween-80

Nc1ncnc2c1ncn2C(C=O)OC(C=O)CO (stereo not given)
T/C (dose: 0.88 mg/kg/injection, schedule: Q01DX009 (ip), vehicle: saline): 106 % of control
T/C (dose: 1.0 mg/kg/injection, schedule: Q01DX009 (ip), vehicle: carboxymethylcellulose (CMC)): 119 % of control
T/C (dose: 1.33 mg/kg/injection, schedule: Q01DX009 (ip), vehicle: saline): 116 % of control
T/C (dose: 2.0 mg/kg/injection, schedule: Q01DX009 (ip), vehicle: saline): 119 % of control
T/C (dose: 2.5 mg/kg/injection, schedule: Q04DX003 (ip), vehicle: carboxymethylcellulose (CMC)): 113 % of control
T/C (dose: 3.3 mg/kg/injection, schedule: Q01DX009 (ip), vehicle: saline): 171 % of control
T/C (dose: 4.0 mg/kg/injection, schedule: Q01DX009 (ip), vehicle: carboxymethylcellulose (CMC)): 158 % of control
T/C (dose: 5.0 mg/kg/injection, schedule: Q01DX009 (ip), vehicle: saline): 261 % of control
T/C (dose: 5.0 mg/kg/injection, schedule: Q04DX003 (ip), vehicle: carboxymethylcellulose (CMC)): 122 % of control
T/C (dose: 5.56 mg/kg/injection, schedule: Q01DX009 (ip), vehicle: saline): 150 % of control
T/C (dose: 7.5 mg/kg/injection, schedule: Q01DX009 (ip), vehicle: saline): 152 % of control
T/C (dose: 8.0 mg/kg/injection, schedule: Q01DX009 (ip), vehicle: carboxymethylcellulose (CMC)): 97 % of control
T/C (dose: 8.33 mg/kg/injection, schedule: Q01DX009 (ip), vehicle: saline): 161 % of control
T/C (dose: 10.0 mg/kg/injection, schedule: Q04DX003 (ip), vehicle: carboxymethylcellulose (CMC)): 153 % of control
T/C [1]: 209 % of control
T/C (dose: 16.0 mg/kg/injection, schedule: Q01DX009 (ip), vehicle: carboxymethylcellulose (CMC)): 184 % of control
T/C (dose: 18.7 mg/kg/injection, schedule: Q01DX009 (ip), vehicle: saline): 152 % of control
T/C (dose: 20.0 mg/kg/injection, schedule: Q04DX003 (ip), vehicle: carboxymethylcellulose (CMC)): 160 % of control
T/C (dose: 40.0 mg/kg/injection, schedule: Q04DX003 (ip), vehicle: carboxymethylcellulose (CMC)): 188 % of control
T/C (dose: 80.0 mg/kg/injection, schedule: Q04DX003 (ip), vehicle: carboxymethylcellulose (CMC)): 179 % of control

CC1(C)CN(Cc2ccccc2)C(C)(C)CN1N
T/C [2]: 97 % of control
T/C (dose: 12.5 mg/kg/injection, schedule: Q01DX009 (ip), vehicle: saline with Tween-80): 101 % of control
T/C (dose: 12.5 mg/kg/injection, schedule: Q04DX003 (ip), vehicle: saline with Tween-80): 111 % of control
T/C (dose: 25.0 mg/kg/injection, schedule: Q01DX009 (ip), vehicle: saline with Tween-80): 97 % of control
T/C (dose: 25.0 mg/kg/injection, schedule: Q04DX003 (ip), vehicle: saline with Tween-80): 107 % of control
T/C (dose: 50.0 mg/kg/injection, schedule: Q01DX009 (ip), vehicle: saline with Tween-80): 115 % of control
T/C [3]: 107 % of control
T/C [4]: 111 % of control

O=C1NC(c2ccccc2)(c2ccccc2)C(=O)N1CCS
T/C (dose: 6.25 mg/kg/injection, schedule: Q01DX009 (ip), vehicle: saline): 89 % of control and 122 % of control
T/C [1]: 104 % of control and 107 % of control
T/C (dose: 25.0 mg/kg/injection, schedule: Q01DX009 (ip), vehicle: saline): 106 % of control and 116 % of control
T/C [5]: 98 % of control
T/C [6]: 95 % of control and 105 % of control

CC(C)(C)OC(=O)C(CC(=O)O)=C(c1ccccc1)c1ccccc1
T/C (dose: 100.0 mg/kg/injection, schedule: Q04DX003 (ip), vehicle: Klucel (hydroxypropylcellulose) (HPC)): 95 % of control
T/C (dose: 200.0 mg/kg/injection, schedule: Q04DX003 (ip), vehicle: Klucel (hydroxypropylcellulose) (HPC)): 108 % of control
T/C (dose: 400.0 mg/kg/injection, schedule: Q04DX003 (ip), vehicle: Klucel (hydroxypropylcellulose) (HPC)): 95 % of control

CS(=O)(=O)OCCCOS(C)(=O)=O
T/C (dose: 12.5 mg/kg/injection, schedule: Q01DX009 (ip), vehicle: Klucel (hydroxypropylcellulose) (HPC)): 109 % of control
T/C (dose: 25.0 mg/kg/injection, schedule: Q01DX009 (ip), vehicle: Klucel (hydroxypropylcellulose) (HPC)): 109 % of control
T/C (dose: 50.0 mg/kg/injection, schedule: Q01DX009 (ip), vehicle: Klucel (hydroxypropylcellulose) (HPC)): 119 % of control
T/C (dose: 100.0 mg/kg/injection, schedule: Q01DX009 (ip), vehicle: Klucel (hydroxypropylcellulose) (HPC)): 95 % of control
T/C [7]: 109 % of control
T/C [8]: 118 % of control

NNC(=O)c1ccncc1
T/C [6]: 110 % of control
T/C (dose: 50.0 mg/kg/injection, schedule: Q04DX003 (ip), vehicle: saline): 105 % of control
T/C [7]: 105 % of control
T/C [8]: 100 % of control

O.O.O.O.O=C([OH2+])CN=Cc1ccccc1O.O=C([OH2+])CN=Cc1ccccc1O.[Ni].[Ni]
T/C (dose: 4.0 mg/kg/injection, schedule: Q01DX009 (ip), vehicle: saline with Tween-80): 100 % of control
T/C (dose: 6.25 mg/kg/injection, schedule: Q04DX003 (ip), vehicle: saline with Tween-80): 113 % of control
T/C (dose: 8.0 mg/kg/injection, schedule: Q01DX009 (ip), vehicle: saline with Tween-80): 115 % of control

O=C(O)/C(Br)=C/c1ccccc1
T/C [3]: 100 % of control
T/C [4]: 109 % of control
T/C [9]: 95 % of control

C[CH2][Pb]([CH2]C)([CH2]C)[O]C(=O)COc1ccccc1
T/C (dose: 0.75 mg/kg/injection, schedule: Q01DX009 (ip), vehicle: Klucel (hydroxypropylcellulose) (HPC)): 118 % of control
T/C (dose: 0.75 mg/kg/injection, schedule: Q04DX003 (ip), vehicle: saline with Tween-80): 107 % of control
T/C (dose: 1.5 mg/kg/injection, schedule: Q04DX003 (ip), vehicle: saline with Tween-80): 117 % of control
T/C (dose: 1.56 mg/kg/injection, schedule: Q01DX009 (ip), vehicle: saline with Tween-80): 115 % of control
T/C (dose: 3.9 mg/kg/injection, schedule: Q04DX003 (ip), vehicle: alcohol): 112 % of control
T/C (dose: 6.0 mg/kg/injection, schedule: Q01DX009 (ip), vehicle: Klucel (hydroxypropylcellulose) (HPC)): 117 % of control
T/C (dose: 6.0 mg/kg/injection, schedule: Q04DX003 (ip), vehicle: alcohol): 120 % of control
T/C [2]: 153 % of control and 168 % of control
T/C (dose: 9.0 mg/kg/injection, schedule: Q04DX003 (ip), vehicle: alcohol): 105 % of control
T/C (dose: 12.0 mg/kg/injection, schedule: Q04DX003 (ip), vehicle: saline with Tween-80): 107 % of control

CN1C(=O)NC2C(CO)OC1C2O (stereo not given)
T/C (dose: 100.0 mg/kg/injection, schedule: Q01DX001 (ip), vehicle: saline): 104 % of control
T/C (dose: 200.0 mg/kg/injection, schedule: Q01DX001 (ip), vehicle: saline): 104 % of control
T/C (dose: 400.0 mg/kg/injection, schedule: Q01DX001 (ip), vehicle: saline): 100 % of control

Cc1ccc(C)c(NC(=O)c2ccc(Cl)cc2Cl)c1
T/C (dose: 75.0 mg/kg/injection, schedule: Q01DX001 (ip), vehicle: other): 90 % of control
T/C (dose: 150.0 mg/kg/injection, schedule: Q01DX001 (ip), vehicle: other): 90 % of control

c1ccc2c[n+]3cc4ccccc4cc3cc2c1
T/C (dose: 8.75 mg/kg/injection, schedule: Q01DX009 (ip), vehicle: saline): 95 % of control
T/C (dose: 12.5 mg/kg/injection, schedule: Q04DX003 (ip), vehicle: saline): 91 % of control
T/C (dose: 17.5 mg/kg/injection, schedule: Q01DX009 (ip), vehicle: saline): 100 % of control
T/C [5]: 100 % of control

Cc1cc(C(C)(CC(C)C)c2ccc(O)c(C)c2)ccc1O
T/C (dose: 100.0 mg/kg/injection, schedule: Q01DX009 (ip), vehicle: gum acacia): 120 % of control
T/C (dose: 200.0 mg/kg/injection, schedule: Q01DX009 (ip), vehicle: gum acacia): 108 % of control

Cc1cc(N)no1
T/C (dose: 100.0 mg/kg/injection, schedule: Q01DX009 (ip), vehicle: saline): 92 % of control
T/C [7]: 104 % of control
T/C (dose: 200.0 mg/kg/injection, schedule: Q01DX009 (ip), vehicle: saline): 96 % of control
T/C [8]: 95 % of control
T/C (dose: 400.0 mg/kg/injection, schedule: Q01DX009 (ip), vehicle: saline): 92 % of control
T/C (dose: 400.0 mg/kg/injection, schedule: Q04DX003 (ip), vehicle: saline): 100 % of control

COc1ccc2c(c1C)CCC1(CO)CC(C)=CCC21 (stereo not given)
T/C (dose: 100.0 mg/kg/injection, schedule: Q01DX001 (ip), vehicle: saline sonified): 90 % of control
T/C (dose: 200.0 mg/kg/injection, schedule: Q01DX001 (ip), vehicle: saline sonified): 90 % of control
T/C (dose: 400.0 mg/kg/injection, schedule: Q01DX001 (ip), vehicle: saline sonified): 86 % of control

Cc1ccc(NC(=O)c2ccccc2C(=O)O)cc1C
T/C [4]: 118 % of control
T/C [9]: 100 % of control
T/C (dose: 400.0 mg/kg/injection, schedule: Q04DX003 (ip), vehicle: saline with Tween-80): 118 % of control
